In patent publication US4542123A (Massachusetts Institute of Technology, priority 1982, dated 1985):
Entries after “also recorded” stand apart in the source; their conditions may differ.

Test: Plasma amino acid levels after glucose ingestion (Example I, Table 1)
Type: in vivo, human
Description: Six healthy, non-obese, fasting subjects each received, on different days 0, 6, 12.5, 25 or 50 g of glucose (Glucola) in a total volume of 100 ml.
Following a protocol approved by the Massachusetts Institute of Technology Committee on the Use of Humans as Experimental Subjects, 6 healthy volunteer outpatients, aged 25-33 years, participated in the study; 3 were males and 3 females. Mean weight was 60 kg for the women and 70 for the men; all subjects were within 10% of their ideal body weight as determined by Metropolitan Life Insurance Company tables. […] Subjects were asked to take meals rich in carbohydrate content (about 300 g/day) for 3 days before beginning the study. On 5 separate days, each subject fasted from 8 p.m. until 9 the next morning and then received a load of 0, 6, 12.5, 25 or 50 g of glucose (caffeine-free glucola) dissolved in water in a total volume of 100 ml; the order of doses was randomized. Venous blood samples were drawn from the antecubital vein through an indwelling catheter at 0, 60 and 120 min for all doses and additionally at 30 and 180 min for the 12.5, 25 and 50 g doses. Blood was collected in heparanized tubes; after centrifugation plasma was stored at -20° C. until analyzed. […] Glucose was analyzed spectrophotometrically after reaction with O-toluidine in hot acidic acid (Sigma Bulletin #635;15). Insulin was measured using a commercial radioimmunoassay kit by a double antibody method (Bio-RIA, Louisville, Ky.). Plasma tryptophan was measured fluorometrically on 20 μl plasma aliquots by the method of Denckla and Dewey, J. Lab. Clin. Med. 69: 160-169, 1967, as modified by Lehman, Scand. J. Clin. Lab. Invest. 28: 49-55, 1971. Branched-chain amino acids and aromatic amino acids were measured in 500 μl aliquots of plasma, deproteinized with sulfosalicylic acid, using a Beckman amino acid analyzer (Beckman Instruments, Palo Alto, Calif., Model 119C).
Data, given as means ±SE errors, were analyzed by two-way analysis of variance; factors compared were dose and time. The Scheffe test was employed to test the statistical significance of differences; p<0.05 was considered significant. Areas under the curves were evaluated by the method of trapezoid approximation. Student tests for paired data were used to evaluate the significance of changes in individual amino acids. Amino acid concentrations after treatments for each subject were also expressed as a percentage of that day's pretreatment levels; mean percent changes were then calculated for each treatment and time interval.
Sum of the LNAA: total concentration of leucine, isoleucine, valine,
the sum of the LNAA, measured 0, 60 and 120 min after 6 nonobese, fasting
subjects ingested 0, 6, 12.5, 25 or 50 g of glucose. All plasma amino
acids, except tryptophan, were measured on a Beckman amino acid analyzer.
Tryptophan was measured by the method of Denckla and Dewey. Data are
expressed as means ± S.E.M.

O=C[C@H](O)[C@@H](O)[C@H](O)[C@H](O)CO [Glucose, glucose]
Absolute leucine concentrations (6-50 g glucose): decreased significantly after 6-50 g | LNAA concentrations, some subjects (6 g of glucose): transiently decreased LNAA concentrations | All other amino acids (absolute concentrations) (12.5-50 g glucose): decreased significantly after 12.5-50 g | Relationship between rise in plasma insulin and fall in LNAA (areas under the curve) (12.5-50 g glucose, subjects 2 and 4, not robust for other subjects): clear inverse linear relationship | Decrease of plasma LNAA vs 0 and 6 g doses (25 and 50 g, 60 and 120 min, P<0.05): significantly greater than those following the 0 and 6 g doses | Decrease of branched-chain amino acids (50 g glucose, 120 min): 35-41% | Decrease of methionine (50 g glucose, 120 min): 31% | Decrease of phenylalanine and tyrosine (50 g glucose, 120 min): 29-31% | Decrease of tryptophan (50 g glucose, 120 min): 23% | Percent reduction in plasma LNAA, 50-g vs 25-g dose (50 g vs 25 g glucose): not consistently associated with a greater percent reduction in plasma LNAA | Absolute concentrations of amino acids, 50-g vs 25-g dose (50 g vs 25 g glucose, 120 min, zero-time LNAA also lower): lower absolute concentrations of the amino acids than the 25-g dose after 120 min | Plasma LNAA concentrations (percent of pre-treatment) (60 and 120 min): dose-related depression of plasma LNAA concentrations | Correlation (r) of glucose dose with mean percent decrease in LNAA (120 min, P<0.01): 0.80 | Decrease of branched-chain amino acids (after 50 g of glucose): 35-41% | Fall of plasma tyrosine concentrations (after 50 g of glucose): 23% | Ratio of plasma tyrosine to other plasma LNAA (after 50 g of glucose): increased significantly | Absolute isoleucine concentrations (after all treatments (0-50 g glucose)): decreased significantly with time after all treatments | Tyrosine/LNAA ratio (any glucose dose): did not change significantly | Plasma Iso level (glucose 6 g, 0 min): 60 ± 7 nmol/mL | Plasma LNAA (sum) (glucose 6 g, 0 min): 522 ± 47 nmol/mL | Plasma Leu level (glucose 6 g, 0 min): 113 ± 11 nmol/mL | Plasma Met level (glucose 6 g, 0 min): 24 ± 4 nmol/mL | Plasma Phe level (glucose 6 g, 0 min): 50 ± 3 nmol/mL | Plasma Trp level (glucose 6 g, 0 min): 46 ± 4 nmol/mL | Plasma Tyr level (glucose 6 g, 0 min): 57 ± 8 nmol/mL | Plasma Val level (glucose 6 g, 0 min): 220 ± 19 nmol/mL | Trp/LNAA (glucose 6 g, 0 min): .088 | Plasma Iso level (glucose 6 g, 60 min): 51 ± 4 nmol/mL | Plasma Leu level (glucose 6 g, 60 min): 100 ± 12 nmol/mL | Plasma Met level (glucose 6 g, 60 min): 21 ± 3 nmol/mL | Plasma Phe level (glucose 6 g, 60 min): 46 ± 2 nmol/mL | Plasma Trp level (glucose 6 g, 60 min): 43 ± 4 nmol/mL | Plasma Tyr level (glucose 6 g, 60 min): 51 ± 7 nmol/mL | Plasma Val level (glucose 6 g, 60 min): 201 ± 15 nmol/mL | Trp/LNAA (glucose 6 g, 60 min): .092 | Plasma Iso level (glucose 6 g, 120 min): 51 ± 5 nmol/mL | Plasma LNAA (sum) (glucose 6 g, 120 min): 471 ± 37 nmol/mL | Plasma Leu level (glucose 6 g, 120 min): 101 ± 9 nmol/mL | Plasma Met level (glucose 6 g, 120 min): 22 ± 3 nmol/mL | Plasma Phe level (glucose 6 g, 120 min): 47 ± 3 nmol/mL | Plasma Trp level (glucose 6 g, 120 min): 41 ± 4 nmol/mL | Plasma Tyr level (glucose 6 g, 120 min): 50 ± 6 nmol/mL | Plasma Val level (glucose 6 g, 120 min): 200 ± 16 nmol/mL | Trp/LNAA (glucose 6 g, 120 min): .086 | Plasma Iso level (glucose 12.5 g, 0 min): 65 ± 5 nmol/mL | Plasma LNAA (sum) (glucose 12.5 g, 0 min): 574 ± 15 nmol/mL | Plasma Leu level (glucose 12.5 g, 0 min): 117 ± 10 nmol/mL | Plasma Met level (glucose 12.5 g, 0 min): 27 ± 2 nmol/mL | Plasma Phe level (glucose 12.5 g, 0 min): 54 ± 4 nmol/mL | Plasma Trp level (glucose 12.5 g, 0 min): 45 ± 2 nmol/mL | Plasma Tyr level (glucose 12.5 g, 0 min): 58 ± 4 nmol/mL | Plasma Val level (glucose 12.5 g, 0 min): 255 ± 47 nmol/mL | Trp/LNAA (glucose 12.5 g, 0 min): .079 | Plasma Iso level (glucose 12.5 g, 60 min): 53 ± 4 nmol/mL | Plasma LNAA (sum) (glucose 12.5 g, 60 min): 501 ± 66 nmol/mL | Plasma Leu level (glucose 12.5 g, 60 min): 96 ± 10 nmol/mL | Plasma Met level (glucose 12.5 g, 60 min): 25 ± 1 nmol/mL | Plasma Phe level (glucose 12.5 g, 60 min): 50 ± 3 nmol/mL | Plasma Trp level (glucose 12.5 g, 60 min): 40 ± 1 nmol/mL | Plasma Tyr level (glucose 12.5 g, 60 min): 52 ± 3 nmol/mL | Plasma Val level (glucose 12.5 g, 60 min): 226 ± 48 nmol/mL | Trp/LNAA (glucose 12.5 g, 60 min): .080 | Plasma Iso level (glucose 12.5 g, 120 min): 48 ± 3 nmol/mL | Plasma LNAA (sum) (glucose 12.5 g, 120 min): 582 ± 49 nmol/mL | Plasma Leu level (glucose 12.5 g, 120 min): 95 ± 9 nmol/mL | Plasma Met level (glucose 12.5 g, 120 min): 23 ± 1 nmol/mL | Plasma Phe level (glucose 12.5 g, 120 min): 46 ± 2 nmol/mL | Plasma Trp level (glucose 12.5 g, 120 min): 41 ± 1 nmol/mL | Plasma Tyr level (glucose 12.5 g, 120 min): 50 ± 3 nmol/mL | Plasma Val level (glucose 12.5 g, 120 min): 221 ± 98 nmol/mL | Trp/LNAA (glucose 12.5 g, 120 min): .084 | Plasma Iso level (glucose 25 g, 0 min): 71 ± 6 nmol/mL | Plasma LNAA (sum) (glucose 25 g, 0 min): 639 ± 79 nmol/mL | Plasma Leu level (glucose 25 g, 0 min): 130 ± 13 nmol/mL | Plasma Met level (glucose 25 g, 0 min): 26 ± 3 nmol/mL | Plasma Phe level (glucose 25 g, 0 min): 56 ± 3 nmol/mL | Plasma Trp level (glucose 25 g, 0 min): 47 ± 2 nmol/mL | Plasma Tyr level (glucose 25 g, 0 min): 63 ± 3 nmol/mL | Plasma Val level (glucose 25 g, 0 min): 294 ± 50 nmol/mL | Trp/LNAA (glucose 25 g, 0 min): .073 | Plasma Iso level (glucose 25 g, 60 min): 48 ± 4 nmol/mL | Plasma LNAA (sum) (glucose 25 g, 60 min): 466 ± 45 nmol/mL | Plasma Leu level (glucose 25 g, 60 min): 84 ± 10 nmol/mL | Plasma Met level (glucose 25 g, 60 min): 21 ± 2 nmol/mL | Plasma Phe level (glucose 25 g, 60 min): 47 ± 4 nmol/mL | Plasma Trp level (glucose 25 g, 60 min): 42 ± 2 nmol/mL | Plasma Tyr level (glucose 25 g, 60 min): 49 ± 2 nmol/mL | Plasma Val level (glucose 25 g, 60 min): 218 ± 29 nmol/mL | Trp/LNAA (glucose 25 g, 60 min): .091 | Plasma Iso level (glucose 25 g, 120 min): 46 ± 4 nmol/mL | Plasma LNAA (sum) (glucose 25 g, 120 min): 454 ± 40 nmol/mL | Plasma Leu level (glucose 25 g, 120 min): 91 ± 8 nmol/mL | Plasma Met level (glucose 25 g, 120 min): 19 ± 2 nmol/mL | Plasma Phe level (glucose 25 g, 120 min): 41 ± 2 nmol/mL | Plasma Trp level (glucose 25 g, 120 min): 41 ± 3 nmol/mL | Plasma Tyr level (glucose 25 g, 120 min): 46 ± 2 nmol/mL | Plasma Val level (glucose 25 g, 120 min): 212 ± 26 nmol/mL | Trp/LNAA (glucose 25 g, 120 min): .089 | Plasma Iso level (glucose 50 g, 0 min): 61 ± 4 nmol/mL | Plasma LNAA (sum) (glucose 50 g, 0 min): 573 ± 60 nmol/mL | Plasma Leu level (glucose 50 g, 0 min): 114 ± 11 nmol/mL | Plasma Met level (glucose 50 g, 0 min): 26 ± 2 nmol/mL | Plasma Phe level (glucose 50 g, 0 min): 50 ± 2 nmol/mL | Plasma Trp level (glucose 50 g, 0 min): 46 ± 2 nmol/mL | Plasma Tyr level (glucose 50 g, 0 min): 59 ± 4 nmol/mL | Plasma Val level (glucose 50 g, 0 min): 262 ± 40 nmol/mL | Trp/LNAA (glucose 50 g, 0 min): .080 | Plasma Iso level (glucose 50 g, 60 min): 48 ± 2 nmol/mL | Plasma LNAA (sum) (glucose 50 g, 60 min): 469 ± 52 nmol/mL | Plasma Leu level (glucose 50 g, 60 min): 93 ± 11 nmol/mL | Plasma Met level (glucose 50 g, 60 min): 21 ± 2 nmol/mL | Plasma Phe level (glucose 50 g, 60 min): 50 ± 4 nmol/mL | Plasma Trp level (glucose 50 g, 60 min): 40 ± 1 nmol/mL | Plasma Tyr level (glucose 50 g, 60 min): 43 ± 3 nmol/mL | Plasma Val level (glucose 50 g, 60 min): 215 ± 32 nmol/mL | Trp/LNAA (glucose 50 g, 60 min): .085 | Plasma Iso level (glucose 50 g, 120 min): 36 ± 4 nmol/mL | Plasma LNAA (sum) (glucose 50 g, 120 min): 372 ± 50 nmol/mL | Plasma Leu level (glucose 50 g, 120 min): 72 ± 10 nmol/mL | Plasma Met level (glucose 50 g, 120 min): 18 ± 2 nmol/mL | Plasma Phe level (glucose 50 g, 120 min): 37 ± 2 nmol/mL | Plasma Trp level (glucose 50 g, 120 min): 35 ± 2 nmol/mL | Plasma Tyr level (glucose 50 g, 120 min): 40 ± 4 nmol/mL | Plasma Val level (glucose 50 g, 120 min): 170 ± 30 nmol/mL | Trp/LNAA (glucose 50 g, 120 min): .094 | Mean percent reductions of LNAA, dose-dependence (healthy fasting subjects, most clearly observed after 120 min): tended to exhibit dose-dependence; also recorded: dose-related decreases in plasma LNAA concentrations | Glucose doses needed to increase the plasma TRP/LNAA ratio (healthy young fasting subjects): 25 to 50 g | Mean absolute LNAA concentrations, dose-related decrease (high intra- and inter-individual variations in basal LNAA): no significant dose-related decreases in mean absolute LNAA concentrations | Tryptophan/LNAA ratio (smaller reduction in plasma tryptophan): became elevated | Glucose dose sufficient to decrease LNAA (some subjects): 6 g | Glucose dose probably required to reduce plasma LNAA (subject 2): ~12.5 g | Glucose dose that may have been needed to reduce plasma LNAA (subject 4): ~25 g | Glucose dose that may have been sufficient to reduce plasma LNAA (subjects 1, 3, 5 and 6, one or more of the times tested): ~6 g
